The source of these data is patent US11945790B2 (ImmunoMolecular Therapeutics, Inc., priority 2020, dated 2024).

HLA-DQ2, sequence (P01920 33-261 limits assumed, other chains not shown): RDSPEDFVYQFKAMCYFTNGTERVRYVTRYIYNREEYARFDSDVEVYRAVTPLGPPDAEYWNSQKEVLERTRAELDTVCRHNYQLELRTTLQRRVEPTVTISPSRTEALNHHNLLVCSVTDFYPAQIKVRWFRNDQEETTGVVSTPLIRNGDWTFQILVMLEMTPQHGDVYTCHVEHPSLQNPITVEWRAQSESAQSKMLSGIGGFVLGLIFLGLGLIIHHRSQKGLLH

The target in the first assay is HLA-DQ2 (Homo sapiens, UniProt P01909+P01920). The assay can be described thus: Inhibition of IL-2 secretion by TCR transductants stimulated by α-gliadin peptides presented by HLA-DQ2 expressing K562 cells (ELISA). The settings on record: inhibition of IL-2 secretion at 200 uM; tested as trans racemate unless otherwise noted; lines naming several Examples = stereoisomer mixture of those Examples. Format: cell-based. The procedure:
Three commercially available analogues of the DQ2 binding molecules of the invention were tested for their ability to inhibit stimulation of T cell receptor (TCR) transductants in the presence of HLA-DQ2 expressing cells presenting known α-gliadin epitopes.
Using a previously published in vitro assay (Ostrov D, et al. Methyldopa blocks MHC class II binding to disease specific antigens in autoimmune diabetes. J Clin Invest. 2018:128 (5)) the ability of these DQ2 binding analogues to inhibit interleukin-2 (IL-2) secretion by TCR transductants stimulated by α-gliadin peptides presented by HLA-DQ2 was determined. Individual TCR transductants (recognizing a I-gliadin or a II-gliadin) were cultured with a gliadin peptide plus the small molecule analogues in the presence of HLA-DQ2 expressing K562 cells serving as antigen presenting cells. TCR transductants cultured with no gliadin peptide served as the negative control, and incubation with an anti-CD3 antibody (eBioscience; clone 2C11) served as a positive control for the TCR transductant. Secreted IL-2 in the culture supernatant was measured using a highly sensitive enzyme-linked immunosorbent assay (ELISA). […] Assays for effects on cell viability and for specificity, assayed in the absence of gliadin peptide or in the presence of a stimulating anti-CD3 antibody, were performed. Unless otherwise noted, the stereochemistry shown below represents the relative configuration. Further, unless otherwise noted, compounds were tested as the trans racemate.
In general terms: In an ELISA, binding on a coated surface is turned into a signal by an enzyme label.
As to `O=C(COC1CC1)N1CCN(C(=O)[C@@H]2C[C@H]2c2ccccc2)CC1` (racemic) [Example 38, 2-Cyclopropoxy-1-(4-(trans-2-phenylcyclopropanecarbonyl)piperazin-1-yl) ethanone], the “% Inh at 200 uM” value was “C (C=25-49%)”.

As for `O=C(COC1CCC1)N1CCN(C(=O)[C@@H]2C[C@H]2c2ccccc2)CC1` (racemic) [Example 39, 2-Cyclobutoxy-1-(4-(trans-2-phenylcyclopropanecarbonyl)piperazin-1-yl) ethanone], the “% Inh at 200 uM” value is “B (B=50-74%)”.

Turning to `COCC(=O)N1CCN(C(=O)[C@@H]2C[C@H]2c2ccccc2)CC1` (relative stereo) [Example 42, [2-Methoxy-1-(4-(trans-2-phenylcyclopropane-1-carbonyl)piperazin-1-yl)ethan-1-one]], the “% Inh at 200 uM” value is reported as “C (C=25-49%)”.

Regarding `CSCC(=O)N1CCN(C(=O)[C@@H]2C[C@H]2c2ccccc2)CC1` (relative stereo) [Example 43, [2-(Methylthio)-1-(4-(trans-2-phenylcyclopropane-1-carbonyl)piperazin-1-yl)ethan-1-one]], the “% Inh at 200 uM” value was “C (C=25-49%)”.

As for `CC(C)OCC(=O)N1CCN(C(=O)[C@@H]2C[C@H]2c2ccccc2)CC1` (relative stereo) [Example 44, 2-Isopropoxy-1-(4-(trans-2-phenylcyclopropanecarbonyl)piperazin-1-yl) ethanone], the “% Inh at 200 uM” value was “C (C=25-49%)”.

Take `CCCCOCC(=O)N1CCN(C(=O)[C@@H]2C[C@H]2c2ccccc2)CC1` (relative stereo) [Example 46, 2-Butoxy-1-(4-(trans-2-phenylcyclopropanecarbonyl)piperazin-1-yl) ethanone]: the “% Inh at 200 uM” value is “B (B=50-74%)”.

Consider `CCCCSCC(=O)N1CCN(C(=O)[C@@H]2C[C@H]2c2ccccc2)CC1` (relative stereo) [Example 47, 2-(Butylthio)-1-(4-(trans-2-phenylcyclopropane-carbonyl)piperazin-1-yl)ethanone], for which the “% Inh at 200 uM” value is “B (B=50-74%)”.

Turning to `O=C(COc1ccccc1)N1CCN(C(=O)[C@@H]2C[C@H]2c2ccccc2)CC1` (relative stereo) [Example 48, 2-Phenoxy-1-(4-(trans-2-phenylcyclopropanecarbonyl)piperazin-1-yl) ethanone], the “% Inh at 200 uM” value was “B (B=50-74%)”.

With `O=C(CSc1ccccc1)N1CCN(C(=O)[C@@H]2C[C@H]2c2ccccc2)CC1` (relative stereo) [Example 49, 1-(4-(Trans-2-phenylcyclopropane-1-carbonyl)piperazin-1-yl)-2-(phenylthio) ethan-1-one], the “% Inh at 200 uM” value is recorded as “C (C=25-49%)”.

Regarding `Cc1ccccc1SCC(=O)N1CCN(C(=O)[C@@H]2C[C@H]2c2ccccc2)CC1` (relative stereo) [Example 50, 1-(4-(Trans-2-phenylcyclopropanecarbonyl)piperazin-1-yl)-2-(o-tolylthio)ethanone], the “% Inh at 200 uM” value was “C (C=25-49%)”.

In the case of `O=C(COC1CCCCCC1)N1CCN(C(=O)[C@@H]2C[C@H]2c2ccccc2)CC1` (relative stereo) [Example 52, 2-(Cycloheptyloxy)-1-(4-(trans-2-phenylcyclopropane-carbonyl)piperazin-1-yl)ethanone], the “% Inh at 200 uM” value is “A (A=≥75%)”.

As to `CC(C)c1ccc(SCC(=O)N2CCN(C(=O)[C@@H]3C[C@H]3c3ccccc3)CC2)cc1` (relative stereo) [Example 54, 2-((4-Isopropylphenyl)thio)-1-(4-(trans-2-phenylcyclopropane-1-carbonyl)piperazin-1-yl) ethan-1-one], the “% Inh at 200 uM” value was “B (B=50-74%)”.

In the case of `Cc1ccc(C)c(SCC(=O)N2CCN(C(=O)[C@@H]3C[C@H]3c3ccccc3)CC2)c1` (relative stereo) [Example 55, 2-((2,5-Dimethylphenyl)thio)-1-(4-(trans-2-phenylcyclo-propanecarbonyl)piperazin-1-yl)-ethanone], the “% Inh at 200 uM” value is “B (B=50-74%)”.

Regarding `Cc1ccc(SCC(=O)N2CCN(C(=O)[C@@H]3C[C@H]3c3ccccc3)CC2)cc1C` (relative stereo) [Example 56, 2-((3,4-Dimethylphenyl)thio)-1-(4-(trans-2-phenylcyclopropanecarbonyl)piperazin-1-yl) ethanone], the “% Inh at 200 uM” value is recorded as “B (B=50-74%)”.

As for `O=C(CSc1ccc(Cl)cc1)N1CCN(C(=O)[C@@H]2C[C@H]2c2ccccc2)CC1` (relative stereo) [Example 57, 2-((4-Chlorophenyl)thio)-1-(4-(trans-2-phenylcyclopropane-carbonyl)piperazin-1-yl) ethanone], the “% Inh at 200 uM” value is given as “B (B=50-74%)”.

As to `O=C(CSc1ccccc1F)N1CCN(C(=O)[C@@H]2C[C@H]2c2ccccc2)CC1` (relative stereo) [Example 58, 2-((2-Fluorophenyl)thio)-1-(4-(trans-2-phenylcyclopropane-1-carbonyl)piperazin-1-yl) ethan-1-one], the “% Inh at 200 uM” value is given as “A (A=≥75%)”.

On to `O=C(CSc1ccc(F)cc1Cl)N1CCN(C(=O)[C@@H]2C[C@H]2c2ccccc2)CC1` (relative stereo) [Example 59, 2-((2-Chloro-4-fluorophenyl)thio)-1-(4-(trans-2-phenylcyclo-propanecarbonyl)piperazin-1-yl)ethanone], for which the “% Inh at 200 uM” value is listed as “C (C=25-49%)”.

For the molecule `O=C(CSc1ccccc1Cl)N1CCN(C(=O)[C@@H]2C[C@H]2c2ccccc2)CC1` (relative stereo) [Example 60, 2-((2-Chlorophenyl)thio)-1-(4-(trans-2-phenylcyclopropane-1-carbonyl)piperazin-1-yl) ethan-1-one], the “% Inh at 200 uM” value is reported as “B (B=50-74%)”.

On to `Cc1cc(F)ccc1SCC(=O)N1CCN(C(=O)[C@@H]2C[C@H]2c2ccccc2)CC1` (relative stereo) [Example 61, 2-((4-Fluoro-2-methylphenyl)thio)-1-(4-(trans-2-phenylcyclopropanecarbonyl)-piperazin-1-yl)ethanone], for which the “% Inh at 200 uM” value is on record as “B (B=50-74%)”.

For the molecule `O=C(CSC1CCCCCC1)N1CCN(C(=O)[C@@H]2C[C@H]2c2ccccc2)CC1` (relative stereo) [Example 69, 2-(Cycloheptylthio)-1-(4-(trans-2-phenylcyclopropane-1-carbonyl)piperazin-1-yl) ethan-1-one], the “% Inh at 200 uM” value is reported as “A (A=≥75%)”.

Take `Cc1ccc(SCC(=O)N2CCN(C(=O)[C@@H]3C[C@H]3c3ccccc3)CC2)c(F)c1` (relative stereo) [Example 71, 2-((2-Fluoro-4-methylphenyl)thio)-1-(4-(trans-2-phenylcyclopropane-1-carbonyl)piperazin-1-yl) ethan-1-one]: the “% Inh at 200 uM” value is reported as “A (A=≥75%)”.

Regarding `Cc1cc(Cl)ccc1SCC(=O)N1CCN(C(=O)[C@@H]2C[C@H]2c2ccccc2)CC1` (relative stereo) [Example 72, 2-((4-Chloro-2-methylphenyl)thio)-1-(4-(trans-2-phenylcyclo-propanecarbonyl)piperazin-1-yl) ethanone], the “% Inh at 200 uM” value is on record as “A (A=≥75%)”.

As for `Cc1ccc(SCC(=O)N2CCN(C(=O)[C@@H]3C[C@H]3c3ccccc3)CC2)c(Cl)c1` (relative stereo) [Example 84, 2-((2-Chloro-4-methylphenyl)thio)-1-(4-(trans-2-phenylcyclo-propanecarbonyl)piperazin-1-yl) ethanone], the “% Inh at 200 uM” value was “A (A=≥75%)”.

With `NC(=O)c1ccc(SCC(=O)N2CCN(C(=O)[C@@H]3C[C@H]3c3ccccc3)CC2)cc1` (relative stereo) [Example 85, 4-((2-Oxo-2-(4-(trans-2-phenylcyclopropanecarbonyl)piperazin-1-yl)ethyl)thio)benzamide], the “% Inh at 200 uM” value is “C (C=25-49%)”.

As to `O=C(CSc1ccc(Cl)cc1F)N1CCN(C(=O)[C@@H]2C[C@H]2c2ccccc2)CC1` (relative stereo) [Example 103, 2-((4-Chloro-2-fluorophenyl)thio)-1-(4-(trans-2-phenylcyclo-propane-1-carbonyl)piperazin-1-yl) ethan-1-one], the “% Inh at 200 uM” value is “A (A=≥75%)”.

In the case of `COC(=O)c1ccc(OCC(=O)N2CCN(C(=O)[C@@H]3C[C@H]3c3ccccc3)CC2)cc1` (relative stereo) [Example 106, Methyl 4-(2-oxo-2-(4-(trans-2-phenylcyclopropanecarbonyl)piperazin-1-yl)ethoxy) benzoate], the “% Inh at 200 uM” value is on record as “A (A=≥75%)”.

In the case of `COC(=O)c1cccc(OCC(=O)N2CCN(C(=O)[C@@H]3C[C@H]3c3ccccc3)CC2)c1` (relative stereo) [Example 109], the “% Inh at 200 uM” value is reported as “A (A=≥75%)”.

In the case of `O=C(CSc1ccc(F)cc1)N1CCN(C(=O)C2CC2c2ccc3c(c2)OCO3)CC1` (stereo not shown) [Example 5], the “% Inh at 200 uM” value is “B (B=50-74%)”.

In the case of `O=C(COc1ccc(F)cc1)N1CCN(C(=O)C2CC2c2ccc3c(c2)OCO3)CC1` (stereo not shown) [Example 6], the “% Inh at 200 uM” value was “A (A=≥75%)”.

In the case of `O=C(c1ccco1)N1CCN(C(=O)C2CC2c2ccc3c(c2)OCO3)CC1` (stereo not shown) [Example 7], the “% Inh at 200 uM” value is recorded as “B (B=50-74%)”.

With `Cc1cc(C(=O)N2CCN(C(=O)C3CC3c3ccc4c(c3)OCO4)CC2)c(C)o1` (stereo not shown) [Example 8], the “% Inh at 200 uM” value is given as “A (A=≥75%)”.

On to `Cc1nnsc1C(=O)N1CCN(C(=O)C2CC2c2ccc3c(c2)OCO3)CC1` (stereo not shown) [Example 9], for which the “% Inh at 200 uM” value is listed as “C (C=25-49%)”.

The assay is the same for the next values; noted with them: inhibition of IL-2 secretion, dose-response; tested as trans racemate unless otherwise noted; lines naming several Examples = stereoisomer mixture of those Examples.
Broadly, the EC50 is the concentration at which the effect is half-maximal. In the case of `COC(=O)c1ccc(OCC(=O)N2CCN(C(=O)[C@@H]3C[C@H]3c3ccccc3)CC2)cc1` (relative stereo) [Example 106, Methyl 4-(2-oxo-2-(4-(trans-2-phenylcyclopropanecarbonyl)piperazin-1-yl)ethoxy) benzoate], the EC50 is 100 to 200 µM.

As to `COC(=O)c1cccc(OCC(=O)N2CCN(C(=O)[C@@H]3C[C@H]3c3ccccc3)CC2)c1` (relative stereo) [Example 109], the EC50 fell in the range of 50 to 100 µM.
